Assay results as given in patent US9302999B2, “Substituted triazoles as herbicides” (E. I. DU PONT DE NEMOURS AND COMPANY, priority 2012, dated 2016).

What was measured:
Type in all cases: in vivo
[1] = tested on: barnyardgrass (Echinochloa crus-galli); test: Test B flooded paddy: barnyardgrass; conditions: Flood, applied to paddy water at 2-leaf stage, visually evaluated after 13 to 15 days
Summary of the method: (§1)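 Flooded-pot test: compound dosed into 3 cm of standing water above soil when plants had two leaves. Visual control ratings (0–100) versus untreated plants after 13–15 d.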

[2] = tested on: velvetleaf (Abutilon theophrasti); test: Test A pre-/postemergence: velvetleaf
Summary of the method: (§2)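 Seeds were sown in loam/sand blend and sprayed preemergence (directed soil spray) and, simultaneously, postemergence at 2–10 cm, one- to two-leaf stage, using compounds in non-phytotoxic solvent with surfactant. After ~10 days in greenhouse, injury was rated visually versus untreated controls, 0 (no effect) to 100 (complete control).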

[3] = tested on: corn (Zea mays); test: Test A pre-/postemergence: corn
Summary of the method: as §2

[4] = tested on: wheat (Triticum aestivum); test: Test A pre-/postemergence: wheat
Summary of the method: as §2

[5] = tested on: sedge, umbrella (small-flower umbrella sedge Cyperus difformis); test: Test B flooded paddy: sedge, umbrella; conditions: Flood, applied to paddy water at 2-leaf stage, visually evaluated after 13 to 15 days
Summary of the method: as §1

[6] = tested on: barnyardgrass (Echinochloa crus-galli); test: Test A pre-/postemergence: barnyardgrass
Summary of the method: as §2

[7] = tested on: pigweed (Amaranthus retroflexus); test: Test A pre-/postemergence: pigweed
Summary of the method: as §2

[8] = tested on: morningglory (Ipomoea spp.); test: Test A pre-/postemergence: morningglory
Summary of the method: as §2

[9] = tested on: rice (Oryza sativa); test: Test B flooded paddy: rice; conditions: Flood, applied to paddy water at 2-leaf stage, visually evaluated after 13 to 15 days
Summary of the method: as §1

[10] = tested on: foxtail, giant (giant foxtail, Setaria faberii); test: Test A pre-/postemergence: foxtail, giant
Summary of the method: as §2

[11] = tested on: ducksalad (Heteranthera limosa); test: Test B flooded paddy: ducksalad; conditions: Flood, applied to paddy water at 2-leaf stage, visually evaluated after 13 to 15 days
Summary of the method: as §1

[12] = tested on: crabgrass, large (large crabgrass, Digitaria sanguinalis); test: Test A pre-/postemergence: crabgrass, large
Summary of the method: as §2

[13] = Postemergence, 125 g ai/ha, 0 to 100 scale, 0 is no effect, 100 is complete control
[14] = Postemergence, 500 g ai/ha, visual rating on 0 to 100 scale (0 no effect, 100 complete control), approximately ten days
[15] = Preemergence, 125 g ai/ha, 0 to 100 scale where 0 is no effect and 100 is complete control
[16] = Preemergence, 500 g ai/ha, 0 to 100 scale (0 no effect, 100 complete control)
[17] = Postemergence, 1000 g ai/ha, visual rating on 0 to 100 scale (0 no effect, 100 complete control), approximately ten days
[18] = Preemergence, 1000 g ai/ha, 0 to 100 scale, 0 is no effect, 100 is complete control
[19] = Postemergence, 500 g ai/ha, 0 to 100 scale, 0 is no effect, 100 is complete control

CON=C(c1cccc(C(F)(F)F)c1)c1nn(-c2ccnc(C(F)(F)F)c2)nc1C [Compound 140]
80: Plant response rating, Pigweed [7, 16]
90: Morningglory plant response rating [8, 14]
70: Velvetleaf plant response rating [2, 14] | Plant response rating, Foxtail, Giant [10, 16]
10: Plant response rating, Wheat [4, 13] | Barnyardgrass plant response rating [6, 13]
50: Plant response rating, Morningglory [8, 13] | Foxtail, Giant plant response rating [10, 14] | Crabgrass, Large plant response rating [12, 14] | Plant response rating, Crabgrass, Large [12, 16]
0: Plant response rating, Corn [3, 15] | Plant response rating, Corn [3, 16] | Plant response rating, Wheat [4, 15] | Plant response rating, Wheat [4, 16] | Plant response rating, Sedge, Umbrella (0 to 100 scale, 0 is no effect, 100 is complete control) ([5]; 250 g ai/ha) | Plant response rating, Barnyardgrass [6, 15] | Plant response rating, Morningglory [8, 15] | Plant response rating, Morningglory [8, 16] | Plant response rating, Rice (0 to 100 scale, 0 is no effect, 100 is complete control) ([9]; 250 g ai/ha) | Plant response rating, Ducksalad (0 to 100 scale, 0 is no effect, 100 is complete control) ([11]; 250 g ai/ha)
20: Plant response rating, Velvetleaf [2, 13] | Plant response rating, Velvetleaf [2, 15] | Corn plant response rating [3, 13] | Wheat plant response rating [4, 14] | Foxtail, Giant plant response rating [10, 13] | Plant response rating, Foxtail, Giant [10, 15] | Crabgrass, Large plant response rating [12, 13] | Plant response rating, Crabgrass, Large [12, 15]
100: Plant response rating, Pigweed [7, 13] | Pigweed plant response rating [7, 14]
30: Plant response rating, Barnyardgrass (0 to 100 scale, 0 is no effect, 100 is complete control) ([1]; 250 g ai/ha) | Plant response rating, Velvetleaf [2, 16] | Corn plant response rating [3, 14] | Barnyardgrass plant response rating [6, 14] | Plant response rating, Barnyardgrass [6, 16] | Plant response rating, Pigweed [7, 15]

Cc1nn(-c2ccc(F)cc2)nc1Cc1cccc(C(F)(F)F)c1 [Compound 157]
60: Plant response rating, Morningglory [8, 13]
70: Barnyardgrass plant response rating [6, 14]
40: Plant response rating, Velvetleaf [2, 13] | Corn plant response rating [3, 14] | Plant response rating, Sedge, Umbrella (0 to 100 scale, 0 is no effect, 100 is complete control) ([5]; 250 g ai/ha) | Plant response rating, Crabgrass, Large [12, 13]
100: Plant response rating, Barnyardgrass [6, 16] | Plant response rating, Pigweed [7, 13] | Pigweed plant response rating [7, 14] | Plant response rating, Pigweed [7, 16] | Plant response rating, Foxtail, Giant [10, 16]
90: Foxtail, Giant plant response rating [10, 14] | Plant response rating, Foxtail, Giant [10, 15] | Plant response rating, Crabgrass, Large [12, 16]
0: Plant response rating, Barnyardgrass (0 to 100 scale, 0 is no effect, 100 is complete control) ([1]; 250 g ai/ha) | Plant response rating, Velvetleaf [2, 15] | Plant response rating, Velvetleaf [2, 16] | Plant response rating, Corn [3, 15] | Plant response rating, Corn [3, 16] | Plant response rating, Wheat [4, 13] | Plant response rating, Wheat [4, 15] | Plant response rating, Wheat [4, 16] | Plant response rating, Morningglory [8, 15] | Plant response rating, Morningglory [8, 16] | Plant response rating, Rice (0 to 100 scale, 0 is no effect, 100 is complete control) ([9]; 250 g ai/ha)
80: Plant response rating, Pigweed [7, 15] | Morningglory plant response rating [8, 14] | Plant response rating, Foxtail, Giant [10, 13] | Crabgrass, Large plant response rating [12, 14]
20: Plant response rating, Corn [3, 13] | Wheat plant response rating [4, 14] | Plant response rating, Barnyardgrass [6, 13] | Plant response rating, Barnyardgrass [6, 15] | Plant response rating, Ducksalad (0 to 100 scale, 0 is no effect, 100 is complete control) ([11]; 250 g ai/ha) | Plant response rating, Crabgrass, Large [12, 15]

Cc1nn(-c2ccc(F)cc2)nc1C(=O)c1ccnc(C(F)(F)F)c1 [Compound 167]
100: Barnyardgrass plant response rating [6, 17] | Plant response rating, Barnyardgrass [6, 18] | Pigweed plant response rating [7, 17] | Plant response rating, Pigweed [7, 18] | Morningglory plant response rating [8, 17] | Foxtail, Giant plant response rating [10, 17] | Plant response rating, Foxtail, Giant [10, 18] | Crabgrass, Large plant response rating [12, 17] | Plant response rating, Crabgrass, Large [12, 18]
40: Wheat plant response rating [4, 17]
20: Plant response rating, Velvetleaf [2, 18]
80: Plant response rating, Wheat [4, 18]
50: Velvetleaf plant response rating [2, 17] | Plant response rating, Sedge, Umbrella (0 to 100 scale, 0 is no effect, 100 is complete control) ([5]; 125 g ai/ha)
30: Corn plant response rating [3, 17] | Plant response rating, Corn [3, 18] | Plant response rating, Rice (0 to 100 scale, 0 is no effect, 100 is complete control) ([9]; 125 g ai/ha)
0: Plant response rating, Barnyardgrass (0 to 100 scale, 0 is no effect, 100 is complete control) ([1]; 125 g ai/ha) | Plant response rating, Ducksalad (0 to 100 scale, 0 is no effect, 100 is complete control) ([11]; 125 g ai/ha)

CC(C)(C)c1nn(-c2ccc(F)cc2)nc1Cc1ccnc(C(F)(F)F)c1 [Compound 176]
0: Plant response rating, Barnyardgrass (0 to 100 scale, 0 is no effect, 100 is complete control) ([1]; 125 g ai/ha) | Plant response rating, Velvetleaf [2, 13] | Velvetleaf plant response rating [2, 19] | Plant response rating, Velvetleaf [2, 15] | Plant response rating, Velvetleaf [2, 16] | Plant response rating, Corn [3, 13] | Corn plant response rating [3, 19] | Plant response rating, Corn [3, 15] | Plant response rating, Corn [3, 16] | Plant response rating, Wheat [4, 13] | Wheat plant response rating [4, 19] | Plant response rating, Wheat [4, 15] | Plant response rating, Wheat [4, 16] | Plant response rating, Sedge, Umbrella (0 to 100 scale, 0 is no effect, 100 is complete control) ([5]; 125 g ai/ha) | Plant response rating, Barnyardgrass [6, 13] | Barnyardgrass plant response rating [6, 19] | Plant response rating, Barnyardgrass [6, 15] | Plant response rating, Barnyardgrass [6, 16] | Plant response rating, Pigweed [7, 13] | Pigweed plant response rating [7, 19] | Plant response rating, Pigweed [7, 15] | Plant response rating, Pigweed [7, 16] | Plant response rating, Morningglory [8, 13] | Morningglory plant response rating [8, 19] | Plant response rating, Morningglory [8, 15] | Plant response rating, Morningglory [8, 16] | Plant response rating, Rice (0 to 100 scale, 0 is no effect, 100 is complete control) ([9]; 125 g ai/ha) | Plant response rating, Foxtail, Giant [10, 13] | Foxtail, Giant plant response rating [10, 19] | Plant response rating, Foxtail, Giant [10, 15] | Plant response rating, Foxtail, Giant [10, 16] | Plant response rating, Ducksalad (0 to 100 scale, 0 is no effect, 100 is complete control) ([11]; 125 g ai/ha) | Plant response rating, Crabgrass, Large [12, 13] | Crabgrass, Large plant response rating [12, 19] | Plant response rating, Crabgrass, Large [12, 15] | Plant response rating, Crabgrass, Large [12, 16]

CCOc1nn(-c2ccc(F)cc2)nc1C(=O)c1ccnc(C(F)(F)F)c1 [Compound 177]
60: Plant response rating, Pigweed [7, 13] | Crabgrass, Large plant response rating [12, 19]
70: Plant response rating, Barnyardgrass [6, 16] | Foxtail, Giant plant response rating [10, 19]
30: Corn plant response rating [3, 19] | Wheat plant response rating [4, 19]
90: Plant response rating, Morningglory [8, 13] | Plant response rating, Foxtail, Giant [10, 15] | Plant response rating, Crabgrass, Large [12, 15]
100: Pigweed plant response rating [7, 19] | Morningglory plant response rating [8, 19] | Plant response rating, Foxtail, Giant [10, 16] | Plant response rating, Crabgrass, Large [12, 16]
10: Plant response rating, Pigweed [7, 15] | Plant response rating, Crabgrass, Large [12, 13]
0: Plant response rating, Barnyardgrass (0 to 100 scale, 0 is no effect, 100 is complete control) ([1]; 125 g ai/ha) | Plant response rating, Velvetleaf [2, 15] | Plant response rating, Corn [3, 15] | Plant response rating, Corn [3, 16] | Plant response rating, Wheat [4, 15] | Plant response rating, Wheat [4, 16] | Plant response rating, Barnyardgrass [6, 13] | Plant response rating, Barnyardgrass [6, 15] | Plant response rating, Rice (0 to 100 scale, 0 is no effect, 100 is complete control) ([9]; 125 g ai/ha) | Plant response rating, Ducksalad (0 to 100 scale, 0 is no effect, 100 is complete control) ([11]; 125 g ai/ha)
40: Plant response rating, Sedge, Umbrella (0 to 100 scale, 0 is no effect, 100 is complete control) ([5]; 125 g ai/ha) | Plant response rating, Morningglory [8, 16]
50: Velvetleaf plant response rating [2, 19] | Plant response rating, Pigweed [7, 16]
20: Plant response rating, Velvetleaf [2, 13] | Plant response rating, Velvetleaf [2, 16] | Plant response rating, Corn [3, 13] | Plant response rating, Wheat [4, 13] | Barnyardgrass plant response rating [6, 19] | Plant response rating, Morningglory [8, 15] | Plant response rating, Foxtail, Giant [10, 13]
